In article PMC6657216, “Defining the Contribution of CYP1A1 and CYP1A2 to Drug Metabolism Using Humanized CYP1A1/1A2 and Cyp1a1/Cyp1a2 Knockout Mice” (Drug Metabolism and Disposition, 2019):
Where “and” joins values, the source holds several entries; their conditions need not be identical. Equal values may be shown once. Read-outs that look alike come from different tables or passages of the source.

Key:
recombinant human CYP1A1 [1] = target: T1, recombinant human CYP1A1 (Homo sapiens, UniProt P04798); test: EROD by recombinant human CYP1A1 with and without quinidine; conditions: for Kd: EROD, rCYP1A1
T1 sequence (P04798 1-512): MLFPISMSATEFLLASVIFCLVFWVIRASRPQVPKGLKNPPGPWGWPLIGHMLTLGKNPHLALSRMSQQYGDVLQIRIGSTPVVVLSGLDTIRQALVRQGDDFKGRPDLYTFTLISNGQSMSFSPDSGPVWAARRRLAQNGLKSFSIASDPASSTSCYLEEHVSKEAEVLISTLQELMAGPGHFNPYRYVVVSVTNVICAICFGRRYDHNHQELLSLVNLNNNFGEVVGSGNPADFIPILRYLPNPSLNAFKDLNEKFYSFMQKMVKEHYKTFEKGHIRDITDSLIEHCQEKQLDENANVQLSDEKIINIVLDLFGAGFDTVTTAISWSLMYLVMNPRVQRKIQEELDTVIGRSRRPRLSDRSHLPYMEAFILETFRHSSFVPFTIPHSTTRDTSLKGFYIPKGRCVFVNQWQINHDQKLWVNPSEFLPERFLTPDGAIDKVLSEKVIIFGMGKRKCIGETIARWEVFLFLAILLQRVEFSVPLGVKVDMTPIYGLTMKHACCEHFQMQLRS
Experimental: (§1) Where needed, total protein concentration in the reaction mixtures was adjusted using Control Bactosomes (Cypex), so all reactions (including those with the recombinant cytochrome P450s) were carried out at a total protein concentration of 0.25 mg protein/ml. […] Slopes of the linear part of the kinetic curves were calculated using Ascent Software version 2.4.1 (Labsystems). For each well with the reaction medium, there was a control well containing the reaction mixture with resorufin (40 pmol). Before addition of NADPH to the reaction wells, fluorescence was recorded both from the reaction and from the control wells. The average fluorescence was calculated, and the difference between wells with and without resorufin was used for the conversion of the relative fluorescence units to the picomoles of the reaction product.

Recombinant rat CYP1A1 = system: Recombinant rat CYP1A1; design: method as in Namkung et al., 1988; conditions: recombinant rat enzymes; ref Namkung et al., 1988; cited from earlier work
recombinant human CYP1A1 [2] = target: T1, recombinant human CYP1A1; design: host or cells: bacteria (membrane / 'bacterial microsomes' preparation); method as in Liu et al., 2004; conditions: recombinant human enzymes; ref Liu et al., 2004; cited from earlier work
recombinant human CYP1A2 [3] = target: T2, recombinant human CYP1A2 (Homo sapiens, UniProt P05177); conditions: read-out: Km ± S.E.; EROD; rCYP1A2
T2 sequence (P05177 1-516): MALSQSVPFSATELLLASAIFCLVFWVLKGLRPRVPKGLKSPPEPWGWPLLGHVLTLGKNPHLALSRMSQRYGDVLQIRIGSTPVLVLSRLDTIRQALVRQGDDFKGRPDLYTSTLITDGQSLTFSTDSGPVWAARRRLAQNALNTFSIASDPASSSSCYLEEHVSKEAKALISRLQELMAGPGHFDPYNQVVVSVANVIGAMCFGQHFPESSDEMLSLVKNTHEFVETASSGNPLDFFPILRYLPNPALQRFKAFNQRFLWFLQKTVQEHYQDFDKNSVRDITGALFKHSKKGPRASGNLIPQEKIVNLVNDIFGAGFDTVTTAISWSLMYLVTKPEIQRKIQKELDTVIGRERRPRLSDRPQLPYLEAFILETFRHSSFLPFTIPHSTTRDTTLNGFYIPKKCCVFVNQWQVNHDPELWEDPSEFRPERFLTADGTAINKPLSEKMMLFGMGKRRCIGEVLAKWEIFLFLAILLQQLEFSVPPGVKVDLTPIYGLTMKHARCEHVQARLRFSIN
Experimental: (§2) Protein enzyme/concentrations were 3.46 pmol/ml for recombinant human CYP1A1, 10.8 pmol/ml for recombinant human CYP1A2, 0.05 mg protein/ml for liver microsomes from TCDD-treated hCYP1A1/1A2 mice, and 0.25 mg protein/ml for liver microsomes from TCDD-treated Cyp1 KO mice and vehicle-treated hCYP1A1/1A2 mice. Where needed, total protein concentration in the reaction mixtures was adjusted using Control Bactosomes (Cypex), so all reactions (including those with the recombinant cytochrome P450s) were carried out at a total protein concentration of 0.25 mg protein/ml. Generation of fluorescent product was registered in a kinetic mode (excitation filter, 530 nm; emission filter, 584 nm). Slopes of the linear part of the kinetic curves were calculated using Ascent Software version 2.4.1 (Labsystems). For each well with the reaction medium, there was a control well containing the reaction mixture with resorufin (40 pmol). Before addition of NADPH to the reaction wells, fluorescence was recorded both from the reaction and from the control wells. The average fluorescence was calculated, and the difference between wells with and without resorufin was used for the conversion of the relative fluorescence units to the picomoles of the reaction product.

liver microsomes = test: Constitutive EROD and MROD activity in liver microsomes of WT, Cyp1a KO and hCYP1A1/1A2 mice; type: in vitro ADME, mouse
Experimental: A mixture of ER (0.93 μM) or MR (0.46 μM) and liver microsomes (0.004–0.27 mg protein/ml) in 100 mM potassium phosphate buffer (pH 7.4) supplemented with MgCl2 (3.3 mM) was incubated at 37°C for 5 minutes before the reaction was initiated by injection of NADPH (final concentration, 1.2 mM). […] Activities in duodenum, ileum, jejunum, colon, lung, kidney, spleen, heart, brain, and testis microsomes were measured as described earlier except for the following adjustments: MR concentration was 1 μM, concentration of total microsomal protein in the reaction was in the range of 0.07–0.43 mg/ml, and amount of resorufin added to calculate the reaction product concentration was 40 pmol.

[4] = system: liver microsomes from TCDD-treated Cyp1a KO mice (non-Cyp1a component); test: EROD in liver microsomes from TCDD-treated Cyp1a KO mice with and without quinidine
Experimental: as §2

[5] = system: liver microsomes from TCDD-treated hCYP1A1/1A2 mice; test: EROD in liver microsomes from TCDD-treated hCYP1A1/1A2 mice: individual contribution of CYP1A1, CYP1A2 and non-Cyp1a; type: in vitro ADME, mouse
Experimental: as §2

recombinant human CYP1A2 [6] = target: T2, recombinant human CYP1A2; test: MROD by recombinant human CYP1A2, inhibition by quinidine; conditions: MROD, rCYP1A2
Experimental: (§3) Slopes of the linear part of the kinetic curves were calculated using Ascent Software version 2.4.1 (Labsystems).
as §1

[7] = system: liver microsomes from TCDD-treated Cyp1a KO mice (non-Cyp1a component); test: MROD in liver microsomes from TCDD-treated Cyp1a KO mice with and without quinidine
Experimental: as §2

recombinant human CYP1A1 [8] = target: T1, recombinant human CYP1A1; test: MROD by recombinant human CYP1A1, inhibition by quinidine
Experimental: as §3, §1

[9] = system: liver microsomes from TCDD-treated hCYP1A1/1A2 mice; test: MROD in liver microsomes from TCDD-treated hCYP1A1/1A2 mice: individual contribution of CYP1A1, CYP1A2 and non-Cyp1a; type: in vitro ADME, mouse
Experimental: as §2

[10] = liver microsomes from TCDD-treated hCYP1A1/1A2 mice, nonlinear regression eq. 7
[11] = quinidine 200 μM, low concentration of ER
[12] = 200 μM quinidine, increased substrate concentration
[13] = 200 μM quinidine, low concentrations of MR
[14] = absence of inhibitor, low substrate concentrations
[15] = liver microsomes from TCDD-treated hCYP1A1/1A2 mice, nonlinear regression eq. 8

`CCOc1ccc2nc3ccc(=O)cc-3oc2c1` [ER, 7-ethoxyresorufin] showed a Kd (recombinant human CYP1A1 [1]; read-out: Ks1 ± S.E., productive enzyme-substrate complex) of 0.09 ± 0.008 µM, a Kd (recombinant human CYP1A1 [1]; read-out: Ks2 ± S.E., inhibitory enzyme-substrate complex) of 11 ± 1 µM and a kcat (recombinant human CYP1A1 [1]; recombinant CYP1A1, Vmax 3300 at 71 pmol/mg protein) of 0.783 s⁻¹. The Vmax (recombinant human CYP1A1 [1]; recombinant CYP1A1, enzyme concentration 71 pmol/mg protein) was 3300 pmol/min/mg protein, the “EROD activity of CYP1A1 compared to CYP1A2 (times more active)” value (Recombinant rat CYP1A1) was ~59 times and the “EROD activity of CYP1A1 compared with CYP1A2 (times more active)” value (recombinant human CYP1A1 [2]) was ~2.8 times. For the same compound, the Km (recombinant human CYP1A2 [3]) was 1.2 µM, the “decrease of EROD activity relative to WT animals” value (liver microsomes; liver microsomes from Cyp1a KO mice, untreated) was 22% and the “constitutive EROD activity relative to WT” value (liver microsomes; liver microsomes from hCYP1A1/1A2 mice) was 155%. For the same compound, the Kd ([4]; read-out: Ks1 ± S.E.) was 0.83 ± 0.04 µM, the Kd ([4]; read-out: Ks2 ± S.E.) was 13 ± 1.5 µM and the “CYP1A1 contribution to EROD” value ([5]; absence of quinidine, 1 μM ER) was 70%. The “CYP1A2 contribution to EROD” value ([5]; absence of quinidine, 6 μM ER) was ~45%, the “CYP1A1 contribution to EROD” value ([5]; absence of quinidine, 6 μM substrate) was ~51% and the “CYP1A1 contribution to EROD” value ([5]; absence of quinidine, low (10 pM) substrate concentration) was ~94%. The “CYP1A2 contribution to EROD” value ([5]; absence of quinidine, low substrate concentration) was ~4.8%, the “Vmax for CYP1A1, EROD” value [5, 10] was 2800 pmol/min/mg protein and the “Vmax for CYP1A2, EROD” value [5, 10] was 1900 pmol/min/mg protein and 1909 pmol/min/mg protein. The “CYP1A1 contribution to EROD” value [5, 11] was ~22%, the “CYP1A2 contribution to EROD” value [5, 11] was 70% and the “non-CYP1A contribution to EROD” value [5, 11] was 8%.
For `COc1ccc2nc3ccc(=O)cc-3oc2c1` [MR, 7-methoxyresorufin], the “MROD activity of CYP1A1 compared to CYP1A2 (times less active)” value (Recombinant rat CYP1A1) is listed as ~14 times, the “MROD activity of CYP1A1 compared with CYP1A2 (times less active)” value (recombinant human CYP1A1 [2]) is listed as ~5.8 times and the Kd (recombinant human CYP1A2 [6]; read-out: Ks1 ± S.E.) is listed as 0.58 ± 0.08 µM. For the same compound, the Kd (recombinant human CYP1A2 [6]; read-out: Ks2 ± S.E.) was 12 ± 3.5 µM, the Kd ([7]; read-out: Ks1 ± S.E.) was 0.96 ± 0.18 µM and the Kd ([7]; read-out: Ks2 ± S.E.) was 3.4 ± 0.8 µM. For the same compound, the “MROD activity compared with WT animals” value (liver microsomes; hCYP1A1/1A2 mouse line liver microsomes) was “unchanged”, the “decrease of MROD compared with WT animals” value (liver microsomes; liver microsomes from Cyp1a KO mice) was “approximately 90%” and the Kd (recombinant human CYP1A1 [8]; read-out: Ks1 ± S.E., rCYP1A1) was 0.47 ± 0.07 µM. The Kd (recombinant human CYP1A1 [8]; read-out: Ks2 ± S.E., rCYP1A1) was 1.3 ± 0.18 µM, the “Non-Cyp1a contribution to MROD” value [9] was ≤ 1.5% and the “CYP1A1 contribution to MROD” value [9, 12] was ~9%. For the same compound, the “CYP1A2 contribution to MROD” value [9, 12] was ~90%, the “CYP1A1 contribution to MROD” value [9, 13] was “less than 1%” and the “CYP1A2 contribution to MROD” value [9, 13] was ~98%. For the same compound, the “CYP1A1 contribution to MROD” value ([9]; absence of inhibitor, 6 μM MR) was ~18%, the “CYP1A2 contribution to MROD” value ([9]; absence of inhibitor, 6 μM MR) was ~81% and the “CYP1A1 contribution to MROD” value [9, 14] was 49%. The “CYP1A2 contribution to MROD” value [9, 14] was 50%, the “Vmax for CYP1A1, MROD” value [9, 15] was 1600 pmol/min/mg protein and the “Vmax for CYP1A2, MROD” value [9, 15] was 2000 pmol/min/mg protein and 1969 pmol/min/mg protein.
